# In US20250263434A1, “OLIGOPEPTIDE HAVING BLOOD PRESSURE REDUCING EFFECT, AND PREPARATION METHOD THEREFOR AND APPLICATION THEREOF” (South China Agricultural University, priority 2020, published 2025):
# Tested on: ACE
# Test: Determination of ACE inhibitory activity (HHL substrate, hippuric acid measured by HPLC)
# Assay type: biochemical
# Details: for IC50: ACE inhibition, IC50 found from the inhibition rate vs concentration curve
# Method: (2) Determination Method of ACE Inhibitory Activity
# 10 μL of ACE solution (0.25 U/mL, ACE enzyme was dissolved into pH 7 potassium phosphate buffer) was respectively added into a sample tube (B) and a blank tube (A), 10 μL of ACEI was added into the sample tube, 10 μL of buffer was added into the blank tube, samples were incubated for 5 min at 37° C., then 30 μL of HHL solution ([…], HHL was dissolved into pH 8.3 0.1 mol·L^−1 borate buffer, containing 0.3 mol·L^−1 NaCl) was added, the above materials reacted for 1 h at 37° C., and then 80 μL of 1.0 mol/L HCl was added to terminate the reaction, so as to obtain a reaction solution, seen in Table 2.
# Mobile phase and chromatographic conditions: acetonitrile: ultrapure water=25:75 (including 0.1% (V/V) TFA), flow rate: 1 mL/min; detection wavelength: 228 nm; column temperature: 30° C.; injection volume: 20 μL.
# Principle: HHL was rapidly decomposed under the catalysis of ACE to produce hippuric acid (Hip) and dipeptide (His-Leu, HL). Hippuric acid has the maximum absorption at 228 nm. When ACEI samples were added, the activity of the ACE enzyme was inhibited and the production amount of hippuric acid was reduced. Therefore, the inhibition rate of ACEI on ACE activity can be evaluated by measuring the production amount of hippuric acid by HPLC.
# In the formula, R: an inhibition rate (%) of ACEI sample on ACE; • A: a peak area of hippuric acid in control group • B: a peak area of hippuric acid in ACEI addition group • A0: a peak area of hippuric acid in blank group
# Where, IC50 is defined as a concentration of an inhibitor required when a half of ACE enzyme activity is inhibited under certain conditions. There was no a linear relationship between the inhibition rate and the concentration of the formulation, and therefore a curve of a relationship between the inhibition rate and the concentration of the formulation was firstly plotted, and then IC50 was found out from the curve. […]
IC50 [µg/mL],IC50 (listed as oligopeptide) [µg/mL],Substance,inhibition rate on ACE (concentration of the sample 1 mg/mL) [%]
56.67 ± 12.02,,"LIIPEH [Artificially synthesized monomer H6, Leu-Ile-Ile-Pro-Glu-His, Synthesized LIIPEH by Shanghai jiepeptide Biotechnology Co., Ltd]",
,280.00 ± 5.77,"LIIPEH [RP-HCLP separated monomer H6, Leu-Ile-Ile-Pro-Glu-His, Oligopeptide LIIPEH separated and purified from rice wine lees]",91.72
